From ChEMBL document CHEMBL3102805, “Truncated Orexin Peptides: Structure-Activity Relationship Studies” (ACS Med Chem Lett, 2013)
Calls of active or inactive are those of the source. The calls are words filed in the database; no cut-off is given here. Where a SMILES comes first, the peptide text is derived from it.

Legend:
Assay type in all cases: functional, cell-based
[1] = molecular target: T1, Orexin/Hypocretin receptor type 1 (Homo sapiens) (UniProt O43613); experiment: Agonist activity at human OX1 receptor overexpressed in CHO-RD-HGA16 cells assessed as calcium mobilization at 10 uM after 15 mins by fluorescence assay relative to control
T1 sequence (whole entry): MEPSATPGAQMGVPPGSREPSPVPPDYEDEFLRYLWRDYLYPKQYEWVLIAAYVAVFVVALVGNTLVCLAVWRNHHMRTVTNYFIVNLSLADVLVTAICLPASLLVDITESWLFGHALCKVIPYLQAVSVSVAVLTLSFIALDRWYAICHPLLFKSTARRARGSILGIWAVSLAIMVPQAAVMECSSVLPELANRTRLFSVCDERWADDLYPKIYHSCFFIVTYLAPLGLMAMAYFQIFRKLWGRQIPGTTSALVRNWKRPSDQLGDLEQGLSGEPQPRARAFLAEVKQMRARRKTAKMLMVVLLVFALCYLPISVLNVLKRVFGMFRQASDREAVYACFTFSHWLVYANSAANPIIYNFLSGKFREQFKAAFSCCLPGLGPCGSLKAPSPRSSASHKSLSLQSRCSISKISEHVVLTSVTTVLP

[2] = molecular target: T2, Orexin receptor type 2 (Homo sapiens) (UniProt O43614); experiment: Agonist activity at human OX2 receptor overexpressed in CHO-RD-HGA16 cells assessed as calcium mobilization at 10 uM after 15 mins by fluorescence assay relative to control
T2 sequence (whole entry): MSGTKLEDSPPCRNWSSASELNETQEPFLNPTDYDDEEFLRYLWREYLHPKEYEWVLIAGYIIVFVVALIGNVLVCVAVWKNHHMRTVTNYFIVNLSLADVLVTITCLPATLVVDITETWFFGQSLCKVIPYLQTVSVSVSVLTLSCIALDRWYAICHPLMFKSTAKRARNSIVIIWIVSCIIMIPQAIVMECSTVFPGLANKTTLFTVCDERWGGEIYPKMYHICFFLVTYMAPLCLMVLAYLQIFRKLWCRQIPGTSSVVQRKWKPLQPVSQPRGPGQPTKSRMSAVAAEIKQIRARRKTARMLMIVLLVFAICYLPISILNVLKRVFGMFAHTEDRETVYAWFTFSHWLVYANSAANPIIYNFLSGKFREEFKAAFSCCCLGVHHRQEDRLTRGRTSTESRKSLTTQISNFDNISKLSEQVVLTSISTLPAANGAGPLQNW

Orexin receptor type 2 = molecular target: T3, Orexin receptor type 2 (Homo sapiens, UniProt O43614); experiment: Agonist activity at human OX2 receptor overexpressed in CHO-RD-HGA16 cells assessed as calcium mobilization after 15 mins by fluorescence assay
T3 sequence (O43614 whole entry): T2 sequence (whole entry)

Row | Compound | Activity [1] | Activity [2] | Percent activation at 10 uM [2] | EC50 (Orexin receptor type 2) | Calcium response at 10 uM relative to control [1]
1 | CC[C@@H](C)[C@@H](NC(=O)CNC(=O)[C@H](C)NC(=O)[C@H](C)NC(=O)[C@H](Cc1cnc[nH]1)NC(=O)[C@H](CC(N)=O)NC(=O)CNC(=O)[C@H](C)NC(=O)CNC(=O)[C@H](Cc1cnc[nH]1)NC(=O)[C@H](CC(C)C)NC(=O)[C@H](CC(C)C)NC(=O)[C@H](CCC(=O)O)NC(=O)[C@@H](N)Cc1ccc(O)cc1)C(=O)N[C@@H](CC(C)C)C(=O)N[C@H](C(=O)N[C@@H](CC(C)C)C(N)=O)[C@@H](C)O | inactive | inactive |  |  | 
2 | CC[C@H](C)[C@H](NC(=O)CNC(=O)[C@@H](C)NC(=O)[C@H](C)NC(=O)[C@H](Cc1cnc[nH]1)NC(=O)[C@H](CC(N)=O)NC(=O)CNC(=O)[C@H](C)NC(=O)CNC(=O)[C@H](Cc1cnc[nH]1)NC(=O)[C@H](CC(C)C)NC(=O)[C@H](CC(C)C)NC(=O)[C@H](CCC(=O)O)NC(=O)[C@@H](N)Cc1ccc(O)cc1)C(=O)N[C@@H](CC(C)C)C(=O)N[C@H](C(=O)N[C@@H](CC(C)C)C(N)=O)[C@@H](C)O | inactive |  | < 50% |  | 
3 | CC[C@H](C)[C@H](NC(=O)CNC(=O)[C@H](C)NC(=O)[C@H](C)NC(=O)[C@H](Cc1cnc[nH]1)NC(=O)[C@@H](CC(N)=O)NC(=O)CNC(=O)[C@H](C)NC(=O)CNC(=O)[C@H](Cc1cnc[nH]1)NC(=O)[C@H](CC(C)C)NC(=O)[C@H](CC(C)C)NC(=O)[C@H](CCC(=O)O)NC(=O)[C@@H](N)Cc1ccc(O)cc1)C(=O)N[C@@H](CC(C)C)C(=O)N[C@H](C(=O)N[C@@H](CC(C)C)C(N)=O)[C@@H](C)O | inactive |  | < 50% |  | 
4 | CC[C@H](C)[C@H](NC(=O)CNC(=O)[C@H](C)NC(=O)[C@H](C)NC(=O)[C@H](Cc1cnc[nH]1)NC(=O)[C@H](CC(N)=O)NC(=O)CNC(=O)[C@H](C)NC(=O)CNC(=O)[C@H](Cc1cnc[nH]1)NC(=O)[C@H](CC(C)C)NC(=O)[C@H](CC(C)C)NC(=O)[C@H](CCC(=O)O)NC(=O)[C@@H](N)Cc1ccc(O)cc1)C(=O)N[C@@H](CC(C)C)C(=O)N[C@@H](C(=O)N[C@@H](CC(C)C)C(N)=O)[C@H](C)O | inactive | inactive |  |  | 
5 | CC[C@H](C)[C@H](NC(=O)CNC(=O)[C@H](C)NC(=O)[C@H](C)NC(=O)[C@H](Cc1cnc[nH]1)NC(=O)[C@H](CC(N)=O)NC(=O)CNC(=O)[C@H](C)NC(=O)CNC(=O)[C@H](Cc1cnc[nH]1)NC(=O)[C@H](CC(C)C)NC(=O)[C@H](CC(C)C)NC(=O)[C@H](CCC(=O)O)NC(=O)[C@@H](N)Cc1ccc(O)cc1)C(=O)N[C@@H](CC(C)C)C(=O)N[C@H](C(=O)N[C@H](CC(C)C)C(N)=O)[C@@H](C)O | inactive | inactive |  |  | 
6 | CC[C@H](C)[C@H](NC(=O)CNC(=O)[C@H](C)NC(=O)[C@H](C)NC(=O)[C@H](Cc1cnc[nH]1)NC(=O)[C@H](CC(N)=O)NC(=O)CNC(=O)[C@H](C)NC(=O)CNC(=O)[C@H](Cc1cnc[nH]1)NC(=O)[C@H](CC(C)C)NC(=O)[C@H](CC(C)C)NC(=O)[C@H](CCC(=O)O)NC(=O)[C@@H](N)Cc1ccc(O)cc1)C(=O)N[C@H](CC(C)C)C(=O)N[C@H](C(=O)N[C@@H](CC(C)C)C(N)=O)[C@@H](C)O | inactive |  | < 50% |  | 
7 | CC[C@H](C)[C@H](NC(=O)CNC(=O)[C@H](C)NC(=O)[C@H](C)NC(=O)[C@H](Cc1cnc[nH]1)NC(=O)[C@H](CC(N)=O)NC(=O)CNC(=O)[C@H](CO)NC(=O)[C@H](C)NC(=O)[C@H](CCC(N)=O)NC(=O)[C@H](CC(C)C)NC(=O)[C@H](CC(C)C)NC(=O)[C@H](CCCNC(=N)N)NC(=O)[C@@H](N)CCC(N)=O)C(=O)N[C@@H](CC(C)C)C(=O)N[C@H](C(=O)N[C@@H](CCSC)C(N)=O)[C@@H](C)O (H-QRLLQASGNHAAGILTM-NH2) |  |  |  | 1040 nM | < 50%
8 | CC[C@H](C)[C@H](NC(=O)[C@H](C)NC(=O)[C@H](C)NC(=O)[C@H](C)NC(=O)[C@H](Cc1cnc[nH]1)NC(=O)[C@H](CC(N)=O)NC(=O)CNC(=O)[C@H](C)NC(=O)CNC(=O)[C@H](Cc1cnc[nH]1)NC(=O)[C@H](CC(C)C)NC(=O)[C@H](CC(C)C)NC(=O)[C@H](CCC(=O)O)NC(=O)[C@@H](N)Cc1ccc(O)cc1)C(=O)N[C@@H](CC(C)C)C(=O)N[C@H](C(=O)N[C@@H](CC(C)C)C(N)=O)[C@@H](C)O (H-YELLHGAGNHAAAILTL-NH2) |  |  | < 50% |  | < 50%
9 | CC(C)C[C@H](NC(=O)[C@@H](NC(=O)[C@H](CC(C)C)NC(=O)[C@H](C)NC(=O)CNC(=O)[C@H](C)NC(=O)[C@H](C)NC(=O)[C@H](Cc1cnc[nH]1)NC(=O)[C@H](CC(N)=O)NC(=O)CNC(=O)[C@H](C)NC(=O)CNC(=O)[C@H](Cc1cnc[nH]1)NC(=O)[C@H](CC(C)C)NC(=O)[C@H](CC(C)C)NC(=O)[C@H](CCC(=O)O)NC(=O)[C@@H](N)Cc1ccc(O)cc1)[C@@H](C)O)C(N)=O (H-YELLHGAGNHAAGALTL-NH2) | inactive | inactive |  |  | 
10 | CC[C@H](C)[C@H](NC(=O)CNC(=O)[C@H](C)NC(=O)[C@H](C)NC(=O)[C@H](Cc1cnc[nH]1)NC(=O)[C@H](CC(N)=O)NC(=O)CNC(=O)[C@H](C)NC(=O)CNC(=O)[C@H](Cc1cnc[nH]1)NC(=O)[C@H](CC(C)C)NC(=O)[C@H](CC(C)C)NC(=O)[C@H](CCC(=O)O)NC(=O)[C@@H](N)Cc1ccc(O)cc1)C(=O)N[C@@H](C)C(=O)N[C@H](C(=O)N[C@@H](CC(C)C)C(N)=O)[C@@H](C)O (H-YELLHGAGNHAAGIATL-NH2) | inactive | inactive |  |  | 
11 | CC[C@H](C)[C@H](NC(=O)CNC(=O)[C@H](C)NC(=O)[C@H](C)NC(=O)[C@H](Cc1cnc[nH]1)NC(=O)[C@H](CC(N)=O)NC(=O)CNC(=O)[C@H](C)NC(=O)CNC(=O)[C@H](Cc1cnc[nH]1)NC(=O)[C@H](CC(C)C)NC(=O)[C@H](CC(C)C)NC(=O)[C@H](CCC(=O)O)NC(=O)[C@@H](N)Cc1ccc(O)cc1)C(=O)N[C@@H](CC(C)C)C(=O)N[C@@H](C)C(=O)N[C@@H](CC(C)C)C(N)=O (H-YELLHGAGNHAAGILAL-NH2) |  |  | < 50% |  | < 50%
12 | CC[C@H](C)[C@H](NC(=O)CNC(=O)[C@H](C)NC(=O)[C@H](C)NC(=O)[C@H](Cc1cnc[nH]1)NC(=O)[C@H](CC(N)=O)NC(=O)CNC(=O)[C@H](C)NC(=O)CNC(=O)[C@H](Cc1cnc[nH]1)NC(=O)[C@H](CC(C)C)NC(=O)[C@H](CC(C)C)NC(=O)[C@H](CCC(=O)O)NC(=O)[C@@H](N)Cc1ccc(O)cc1)C(=O)N[C@@H](CC(C)C)C(=O)N[C@H](C(=O)N[C@@H](C)C(N)=O)[C@@H](C)O (H-YELLHGAGNHAAGILTA-NH2) |  | inactive |  |  | < 50%
